Format in all cases: in vivo
Experiment [1] deals with galium (catchweed bedstraw, Galium aparine). The experiment can be described thus: Test A1 postemergence, galium. Conditions: Postemergence. An outline of the steps: (§1)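 Seeds were first planted into a blend of loam soil and sand and given a preemergence directed soil spray. In parallel, pots of the same soil were sown for postemergence application once plants reached 2 to 10 cm and the one- to two-leaf stage. Both used surfactant-containing non-phytotoxic solvent formulations.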

The next experiment has as its system kochia (Bassia scoparia). The experiment can be described thus: Test A1 postemergence, kochia. The settings on record: Postemergence. Summed up: as §1
A further experiment concerns corn (Zea mays). The experiment can be described thus: Test A1 postemergence, corn. Conditions: Postemergence. Summed up:
(§2)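 Both timings started from seed in a loam-sand blend. Preemergence pots got a directed soil application immediately; postemergence pots were sprayed when seedlings had one or two leaves and stood 2–10 cm. Each compound was prepared in a non-phytotoxic solvent plus surfactant.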

Experiment [2] deals with soybean (Glycine max). The experiment can be described thus: Test A1 preemergence, soybean. Summed up: as §2
In experiment [3] the test system is Ryegrass, Italian (Italian ryegrass, Lolium multiflorum). The experiment can be described thus: Test A1 postemergence, Ryegrass, Italian. The settings on record: Postemergence. An outline of the steps:
as §1

The test system of experiment [4] is Foxtail, Giant (giant foxtail, Setaria faberi). The experiment can be described thus: Test A1 postemergence, Foxtail, Giant. The settings on record: Postemergence. An outline of the steps: as §1
Experiment [5] deals with Ryegrass, Italian (Italian ryegrass, Lolium multiflorum). The experiment can be described thus: Test A1 preemergence, Ryegrass, Italian. Summed up: as §2
In experiment [6] the test system is blackgrass (Alopecurus myosuroides). The experiment can be described thus: Test A1 postemergence, blackgrass. The settings on record: Postemergence, 0 to 100 scale (0 no effect, 100 complete control). An outline of the steps: as §1
The test system of experiment [7] is Pigweed, Palmer (palmer amaranth, palmer pigweed, Amaranthus palmeri). The experiment can be described thus: Test A1 preemergence, Pigweed, Palmer. Summed up: as §2
Experiment [8] deals with soybean (Glycine max). The experiment can be described thus: Test A1 postemergence, soybean. Conditions: Postemergence. An outline of the steps: as §1
[9] abbreviates: 31 g ai/ha, 0 to 100 scale (0 no effect, 100 complete control), 10 days.
Setting [10] is: 31 g ai/ha, 0 to 100 scale (0 no effect, 100 complete control).
Setting [11] is: 125 g ai/ha, 0 to 100 scale, 0 no effect, 100 complete control.

As to `Cc1cc(C)c(N(C(=O)OCC(C)C)S(=O)(=O)C(F)(F)F)cc1C1=NOC2CCCC12` (stereo not shown) [Compound 299], the “Plant response rating, Galium” value in experiment [1] (setting [9]) came out at 40; in experiment [1] (125 g ai/ha, 0 to 100 scale), 60. Besides, the “Plant response rating, Kochia” value with kochia (Bassia scoparia) (setting [9]) came to 0; with kochia (Bassia scoparia) (125 g ai/ha, 0 to 100 scale), 20. Also, the “Plant response rating, Corn” value in the experiment on corn (Zea mays) (setting [9]) worked out at 0; in the experiment on corn (Zea mays) (125 g ai/ha, 0 to 100 scale), 0. Besides, the “Plant response rating, Soybean” value with soybean (Glycine max) [2] (setting [10]) was determined as 0; in the experiment on soybean (Glycine max) [2] (setting [11]), 0; in the experiment on soybean (Glycine max) [8] (setting [9]), 40; with soybean (Glycine max) [8] (125 g ai/ha, 0 to 100 scale), 50. Besides, the “Plant response rating, Ryegrass, Italian” value stood at 30 in [3] (setting [9]); 50 in [3] (125 g ai/ha, 0 to 100 scale); 50 in experiment [5] (setting [10]); 60 in [5] (setting [11]). Besides, the “Plant response rating, Foxtail, Giant” value in [4] (setting [9]) worked out at 0; in [4] (125 g ai/ha, 0 to 100 scale), 30. Further, the “Plant response rating, Blackgrass” value in [6] (31 g ai/ha, 10 days) turned out to be 0; in experiment [6] (125 g ai/ha) it was 0. The figures for the “Plant response rating, Pigweed, Palmer” value in experiment [7] (setting [10]) and in [7] (setting [11]) were 0 and 70, respectively.
Regarding `Cc1cc(C)c(N(COC(=O)C(C)(C)C)S(=O)(=O)C(F)(F)F)cc1C1=NOC2COCC12` (stereo not shown) [Compound 301], the “Plant response rating, Galium” value in experiment [1] (setting [9]) was found to be 70; in [1] (125 g ai/ha, 0 to 100 scale), 90. For the same compound, the “Plant response rating, Kochia” value in the experiment on kochia (Bassia scoparia) (setting [9]) worked out at 0; with kochia (Bassia scoparia) (125 g ai/ha, 0 to 100 scale) it was 30. Moreover, the “Plant response rating, Corn” value was 0 in the experiment with corn (Zea mays) (setting [9]) and 30 with corn (Zea mays) (125 g ai/ha, 0 to 100 scale). The “Plant response rating, Soybean” value with soybean (Glycine max) [2] (setting [10]) is recorded as 0; with soybean (Glycine max) [2] (setting [11]) it was 20; in the experiment with soybean (Glycine max) [8] (setting [9]), 10; in the experiment with soybean (Glycine max) [8] (125 g ai/ha, 0 to 100 scale), 40. For the same compound, the “Plant response rating, Ryegrass, Italian” value in [3] (setting [9]) is 0; in experiment [3] (125 g ai/ha, 0 to 100 scale), 60; in experiment [5] (setting [10]), 20; in [5] (setting [11]), 90. The “Plant response rating, Foxtail, Giant” value in [4] (setting [9]) came to 0; in experiment [4] (125 g ai/ha, 0 to 100 scale), 60. The “Plant response rating, Blackgrass” value in experiment [6] (31 g ai/ha, 10 days) is reported as 0; in experiment [6] (125 g ai/ha), 0. Further, the “Plant response rating, Pigweed, Palmer” value is on record as 10 in experiment [7] (setting [10]) and 40 in [7] (setting [11]).
Consider `Cc1cc(Br)c(C2=NOC3CCCC23)cc1NS(=O)(=O)C(F)(F)F` (stereo not shown) [Compound 302], for which the “Plant response rating, Galium” value in experiment [1] (setting [9]) is given as 0; in experiment [1] (125 g ai/ha, 0 to 100 scale) it was 0. Besides, the “Plant response rating, Kochia” value came to 10 with kochia (Bassia scoparia) (setting [9]) and 50 in the experiment with kochia (Bassia scoparia) (125 g ai/ha, 0 to 100 scale). In addition, the “Plant response rating, Corn” value in the experiment on corn (Zea mays) (setting [9]) was determined as 0; with corn (Zea mays) (125 g ai/ha, 0 to 100 scale) it was 0. The “Plant response rating, Soybean” value in the experiment on soybean (Glycine max) [2] (setting [10]) stood at 0; in the experiment with soybean (Glycine max) [2] (setting [11]) it was 20; with soybean (Glycine max) [8] (setting [9]) it was 20; in the experiment on soybean (Glycine max) [8] (125 g ai/ha, 0 to 100 scale), 40. Also, the “Plant response rating, Ryegrass, Italian” value in experiment [3] (setting [9]) amounted to 0; in [3] (125 g ai/ha, 0 to 100 scale) it was 0; in experiment [5] (setting [10]) it was 50; in experiment [5] (setting [11]) it was 90. For the same compound, the “Plant response rating, Foxtail, Giant” value in experiment [4] (setting [9]) is on record as 0; in experiment [4] (125 g ai/ha, 0 to 100 scale), 0. In addition, the “Plant response rating, Blackgrass” value in [6] (31 g ai/ha, 10 days) is 0; in experiment [6] (125 g ai/ha), 0. The “Plant response rating, Pigweed, Palmer” value in [7] (setting [10]) came to 20; in [7] (setting [11]), 50.
For the compound `CCc1cc(C)c(NS(=O)(=O)C(F)(F)F)cc1C1=NOC2CCCC12` (stereo not shown) [Compound 305], the “Plant response rating, Galium” value in experiment [1] (setting [9]) worked out at 50; in experiment [1] (125 g ai/ha, 0 to 100 scale), 60. Further, the “Plant response rating, Kochia” value in the experiment with kochia (Bassia scoparia) (setting [9]) came to 0; in the experiment on kochia (Bassia scoparia) (125 g ai/ha, 0 to 100 scale), 10. Further, the “Plant response rating, Corn” value in the experiment with corn (Zea mays) (setting [9]) is listed as 0; in the experiment with corn (Zea mays) (125 g ai/ha, 0 to 100 scale), 0. Moreover, the “Plant response rating, Soybean” value in the experiment with soybean (Glycine max) [2] (setting [10]) worked out at 0; with soybean (Glycine max) [2] (setting [11]), 40; in the experiment with soybean (Glycine max) [8] (setting [9]) it was 10; in the experiment with soybean (Glycine max) [8] (125 g ai/ha, 0 to 100 scale), 50. The “Plant response rating, Ryegrass, Italian” value in experiment [3] (setting [9]) came to 0; in experiment [3] (125 g ai/ha, 0 to 100 scale), 40; in experiment [5] (setting [10]), 40; in experiment [5] (setting [11]), 90. For the same compound, the “Plant response rating, Foxtail, Giant” value in experiment [4] (setting [9]) worked out at 20; in experiment [4] (125 g ai/ha, 0 to 100 scale), 60. The “Plant response rating, Blackgrass” value in experiment [6] (31 g ai/ha, 10 days) is listed as 0; in experiment [6] (125 g ai/ha) it was 0. In addition, the “Plant response rating, Pigweed, Palmer” value came to 40 in experiment [7] (setting [10]) and 60 in experiment [7] (setting [11]).
Regarding `Cc1cc(C(F)(F)F)c(C2=NOC3CCCC23)cc1NS(=O)(=O)C(F)(F)F` (stereo not shown) [Compound 306], the “Plant response rating, Galium” value in [1] (setting [9]) was determined as 60; in experiment [1] (125 g ai/ha, 0 to 100 scale) it was 80. For the same compound, the “Plant response rating, Kochia” value in the experiment with kochia (Bassia scoparia) (setting [9]) amounted to 0; in the experiment on kochia (Bassia scoparia) (125 g ai/ha, 0 to 100 scale), 20. Also, the “Plant response rating, Corn” value in the experiment on corn (Zea mays) (setting [9]) is given as 0; with corn (Zea mays) (125 g ai/ha, 0 to 100 scale), 0. Further, the “Plant response rating, Soybean” value in the experiment with soybean (Glycine max) [2] (setting [10]) was 0; with soybean (Glycine max) [2] (setting [11]), 0; in the experiment on soybean (Glycine max) [8] (setting [9]), 20; with soybean (Glycine max) [8] (125 g ai/ha, 0 to 100 scale), 40. The “Plant response rating, Ryegrass, Italian” value was determined as 0 in experiment [3] (setting [9]); 10 in experiment [3] (125 g ai/ha, 0 to 100 scale); 0 in experiment [5] (setting [10]); 80 in experiment [5] (setting [11]). The “Plant response rating, Foxtail, Giant” value in [4] (setting [9]) worked out at 0; in experiment [4] (125 g ai/ha, 0 to 100 scale), 30. In addition, the “Plant response rating, Blackgrass” value amounted to 0 in [6] (31 g ai/ha, 10 days) and 0 in experiment [6] (125 g ai/ha). Also, the figures for the “Plant response rating, Pigweed, Palmer” value in [7] (setting [10]) and in [7] (setting [11]) were 50 and 100, respectively.
